The subject of the assay is thyroparathyroidectomized (TPTX) rats. Kind of assay: PTH-induced hypercalcemia in the TPTX rat model of bone resorption. The class given is in vivo. The settings on record: PTH treated TPTX male Sprague Dawley rats; perorally twice at 10 mg/kg (time 0 and 3 h after start of PTH infusion); serum at 6 hours. The text has this:
9) Pharmacological Testing: PTH-Induced Hypercalcemia in the TPTX Rat Model of Bone Resorption
In this in vivo model a stimulation of bone resorption is induced in thyroparathyroidectomized (TPTX) rats by the infusion of parathyroid hormone (PTH). The changes in bone resorption are monitored by measuring the serum calcium concentration which is directly related to the extent of bone resorption.
Male Sprague Dawley rats (OFA-IFFA CREDO, France) weighting 150-200 g were thyroparathyroidectomized by the supplier. The rats were allowed free access to a standard commercial pelleted diet containing 7 g Ca/kg (UAR) and Eau de Volvic water. The success of thyroparathyroidectomy was tested by measuring serum calcium concentrations 8 days after operation in overnight fasted animals. Rats were considered as TPTX when the serum calcium level was <80 mg/l.
For treatment with PTH, rat PTH(1-34) (Bachem) was dissolved in 0.15 M sodium chloride solution containing 2% Cys-HCl and delivered via osmotic minipumps (ALZET 2001 D) at 200 pmol/kg/h. […]
Serum total calcium concentrations (=calcemia) were measured […] (Ciba-Corning) using a IEMS Labsystems microplate reader at 540 nm. The differences between the mean values of calcemia in the groups were analysed for variance and by Dunnett's test. The activity of the test compound was calculated as % effect according to the formula: [formula]

For `CCOC(=O)[C@H](CNC(=O)c1ccc(CCC(=O)NC2=NCCCN2)cc1)NS(=O)(=O)c1cccc2ccccc12.O=C(O)/C=C/C(=O)O` [compound of formula I, ethyl (2S)-2-(naphthalene-1-sulfonylamino)-3-(4-(2-(1,4,5,6-tetrahydropyrimidin-2-ylcarbamoyl)ethyl)benzoylamino)propionate hemifumarate], the “% effect on serum total calcium concentration (calcemia)” value is recorded as −45%.

The values above are taken from patent US6900318B1, “1,4,5,6-tetrahydropyrimidine derivative as a vitronectin inhibitor” (Aventis Pharma Deutscland GmbH, priority 1999, dated 2005).
